Test results published in patent publication US8674118B2, “Compounds and methods for the treatment or prevention of flavivirus infections” (priority 2005, dated 2014).
Read-outs that look alike come from different tables or passages of the source.

Test system: HCV RNA replication (replicon cell lines Huh-7, 5.2 and ET)
Assay: Cell-Based Luciferase Reporter HCV RNA Replication Assay
Details: Hepatitis C virus, Huh-7, 96 h
[1] = Huh-7, 5.2 or ET replicon cells, luciferase counts after 4 days incubation, read-out: IC50

Compound	IC50 [1] [µM]	IC50 [µM]
CC1CCCC(N(c2cc(C3=CCCCC3)sc2C(=O)O)C(=O)[C@H]2CC[C@H](C)CC2)C1 (relative stereo) [Compound 39, 5-cyclohex-1-enyl-3-[(trans-4-methyl-cyclohexanecarbonyl)-(3-methyl-cyclohexyl)-amino]-thiophene-2-carboxylic acid]	< 5	–
C[C@H]1CC[C@H](C(=O)N(c2cc(C3=CCCCC3)sc2C(=O)O)C2CC3CCC(C3)C2)CC1 (relative stereo) [Compound 40, 3-[bicyclo[3.2.1]oct-3-yl-(trans-4-methylcyclohexanecarbonyl)-amino]-5-cyclohex-1-enyl-thiophene-2-carboxylic acid]	< 5	–
CC1CC=C(c2cc(N(C(=O)[C@H]3CC[C@H](C)CC3)C(C)C)c(C(=O)O)s2)CC1 (relative stereo) [Compound 43, 3-[isopropyl-(trans-4-methyl-cyclohexanecarbonyl)-amino]-5-(4-methyl-cyclohex-1-enyl)-thiophene-2-carboxylic acid]	< 5	–
CCON=C1CCC(N(c2cc(C3=CCCCC3)sc2C(=O)O)C(=O)[C@H]2CC[C@H](C)CC2)CC1 (relative stereo) [Compound 54, 5-cyclohex-1-enyl-3-[(4-ethoxyimino-cyclohexyl)-(trans-4-methyl-cyclohexanecarbonyl)-amino]-thiophene-2-carboxylic acid]	–	< 5
C[C@H]1CC[C@H](C(=O)N(c2cc(C3=CC(O)CCC3)sc2C(=O)O)[C@H]2CC[C@H](OC3CCCCO3)CC2)CC1 (relative stereo) [Compound 55, 5-(3-hydroxy-cyclohex-1-enyl)-3-{(trans-4-methyl-cyclohexanecarbonyl)-[trans-4-(tetrahydro-pyran-2-yloxy)-cyclohexyl]amino}-thiophene-2-carboxylic acid]	< 5	–
C[C@H]1CC[C@H](C(=O)N(c2cc(C3=CCCCC3)sc2C(=O)O)C2CC[S+]([O-])CC2)CC1 (relative stereo) [Compound 69, 5-cyclohex-1-enyl-3-[(trans-4-methyl-cyclohexanecarbonyl)-(1-oxo-hexahydro-1lambda*4*-thiopyran-4-yl)-amino]-thiophene-2-carboxylic acid]	< 5	–
CN1C(=O)N(C)C2(CCC(N(c3cc(C4=CCC(C)(C)CC4)sc3C(=O)O)C(=O)[C@H]3CC[C@H](C)CC3)CC2)C1=O (relative stereo) [Compound 75, 5-(4,4-dimethyl-cyclohex-1-enyl)-3-[(1,3-dimethyl-2,4-dioxo-1,3-diaza-spiro[4.5]dec-8-yl)-(trans-4-methyl-cyclohexanecarbonyl)-amino]-thiophene-2-carboxylic acid]	< 5	–
CN1C(=O)N(C)C2(CCC(N(c3cc(C4CCC(C)(C)CC4)sc3C(=O)O)C(=O)[C@H]3CC[C@H](C)CC3)CC2)C1=O (relative stereo) [Compound 79, 5-(4,4-dimethyl-cyclohexyl)-3-[(1,3-dimethyl-2,4-dioxo-1,3-diaza-spiro[4.5]dec-8-yl)-(trans-4-methyl-cyclohexanecarbonyl)-amino]-thiophene-2-carboxylic acid]	< 5	–
C[C@H]1CC[C@H](C(=O)N(c2cc(C3=CC(O)CCC3)sc2C(=O)O)[C@H]2CC[C@H](O)CC2)CC1 (relative stereo) [Compound 82, 5-(3-hydroxy-cyclohex-1-enyl)-3-[(trans-4-hydroxy-cyclohexyl)-(trans-4-methyl-cyclohexanecarbonyl)-amino]-thiophene-2-carboxylic acid]	5 to 25	–
CO[C@H]1CC[C@H](N(c2cc(C3CCC(C(F)(F)F)CC3)sc2C(=O)O)C(=O)[C@H]2CC[C@H](C)CC2)CC1 (relative stereo) [Compound 108, 3-[(trans-4-methoxy-cyclohexyl)-(trans-4-methyl-cyclohexanecarbonyl)-amino]-5-(4-trifluoromethyl-cyclohexyl)-thiophene-2-carboxylic acid]	< 5	–
CO[C@H]1CC[C@H](N(c2cc(C3=C(F)CCCC3F)sc2C(=O)O)C(=O)[C@H]2CC[C@H](C)CC2)CC1 (relative stereo) [Compound 119, 5-(2,6-difluoro-cyclohex-1-enyl)-3-[(trans-4-methoxy-cyclohexyl)-(trans-4-methyl-cyclohexanecarbonyl)-amino]-thiophene-2-carboxylic acid]	< 5	–
CO[C@H]1CC[C@H](N(c2cc(C3=C(F)C(F)CCC3)sc2C(=O)O)C(=O)[C@H]2CC[C@H](C)CC2)CC1 (relative stereo) [Compound 120, 5-(2,3-difluoro-cyclohex-1-enyl)-3-[(trans-4-methoxy-cyclohexyl)-(trans-4-methyl-cyclohexanecarbonyl)-amino]-thiophene-2-carboxylic acid]	< 5	–
CO[C@H]1CC[C@H](N(c2cc(C3=CCC(C(F)(F)F)CC3)sc2C(=O)O)C(=O)[C@H]2CC[C@H](C)CC2)CC1 (relative stereo) [Compound 124, 3-[(trans-4-methoxy-cyclohexyl)-(trans-4-methyl-cyclohexanecarbonyl)-amino]-5-(4-trifluoromethyl-cyclohex-1-enyl)-thiophene-2-carboxylic acid]	< 5	–
CCC(=O)N(C)C1CCC(N(c2cc(C3=CCCCC3)sc2C(=O)O)C(=O)[C@H]2CC[C@H](C)CC2)CC1 (relative stereo) [Compound 140, 5-cyclohex-1-enyl-3-{(trans-4-methyl-cyclohexanecarbonyl)-[4-(methyl-propionyl-amino)-cyclohexyl]-amino}-thiophene-2-carboxylic acid]	< 5	–
C[C@H]1CC[C@H](C(=O)N(c2cc(C3=CCCCC3)sc2C(=O)O)[C@H]2CC[C@H](O)CC2)CC1 [Compound 1, 5-Cyclohex-1-enyl-3-[(trans-4-hydroxy-cyclohexyl)-(trans-4-methyl-cyclohexanecarbonyl)-amino]-thiophene-2-carboxylic acid]	< 5	–
C[C@H]1CC[C@H](C(=O)N(c2cc(C3CCCCC3)sc2C(=O)O)[C@H]2CC[C@H](O)CC2)CC1 [Compound 2, 5-Cyclohexyl-3-[(trans-4-hydroxy-cyclohexyl)-(trans-4-methyl-cyclohexanecarbonyl)-amino]-thiophene-2-carboxylic acid]	< 5	–
C[C@H]1CC[C@H](C(=O)N(c2cc(C3=CCCC3)sc2C(=O)O)[C@H]2CC[C@H](O)CC2)CC1 [Compound 3, 5-Cyclopent-1-enyl-3-[(trans-4-hydroxy-cyclohexyl)-(trans-4-methyl-cyclohexanecarbonyl)-amino]-thiophene-2-carboxylic acid]	< 5	–
C[C@H]1CC[C@H](C(=O)N(c2cc(C3=CCCCCC3)sc2C(=O)O)[C@H]2CC[C@H](O)CC2)CC1 [Compound 5, 5-Cyclohept-1-enyl-3-[(trans-4-hydroxy-cyclohexyl)-(trans-4-methyl-cyclohexanecarbonyl)-amino]-thiophene-2-carboxylic acid]	< 5	–
C[C@H]1CC[C@H](C(=O)N(c2cc(C3CCCCCC3)sc2C(=O)O)[C@H]2CC[C@H](O)CC2)CC1 [Compound 6, 5-Cycloheptyl-3-[(trans-4-hydroxy-cyclohexyl)-(trans-4-methyl-cyclohexanecarbonyl)-amino]-thiophene-2-carboxylic acid]	< 5	–
CC(C)N(c1cc(C2=CCCCC2)sc1C(=O)O)C(=O)[C@H]1CC[C@H](C)CC1 [Compound 7, 5-Cyclohex-1-enyl-3-[isopropyl-(trans-4-methyl-cyclohexanecarbonyl)-amino]-thiophene-2-carboxylic acid]	< 5	–
C[C@H]1CC[C@H](C(=O)N(c2cc(C3=CCCCC3)sc2C(=O)O)C2CCC(=O)CC2)CC1 [Compound 8, 5-Cyclohex-1-enyl-3-[(trans-4-methyl-cyclohexanecarbonyl)-(4-oxo-cyclohexyl)-amino]-thiophene-2-carboxylic acid]	< 5	–
C[C@H]1CC[C@H](C(=O)N(c2cc(C3=CCCCC3)sc2C(=O)O)[C@H]2CC[C@@H](O)CC2)CC1 [Compound 9, 5-Cyclohex-1-enyl-3-[(cis-4-hydroxy-cyclohexyl)-(trans-4-methyl-cyclohexanecarbonyl)-amino]-thiophene-2-carboxylic acid]	< 5	–
C[C@H]1CC[C@H](C(=O)N(c2ccccc2)c2cc(C3=CCCCC3)sc2C(=O)O)CC1 [Compound 10, 5-Cyclohex-1-enyl-3-[(trans-4-methyl-cyclohexanecarbonyl)-phenyl-amino]-thiophene-2-carboxylic acid]	< 5	–
C[C@H]1CC[C@H](C(=O)N(c2cc(C3=CCCCC3)sc2C(=O)O)C2CCCCC2)CC1 [Compound 11, 5-Cyclohex-1-enyl-3-[cyclohexyl-(trans-4-methyl-cyclohexanecarbonyl)-amino]-thiophene-2-carboxylic acid]	< 5	–
CO[C@H]1CC[C@H](N(c2cc(C3=CCCCC3)sc2C(=O)O)C(=O)[C@H]2CC[C@H](C)CC2)CC1 [Compound 12, 5-Cyclohex-1-enyl-3-[(trans-4-methoxy-cyclohexyl)-(trans-4-methyl-cyclohexanecarbonyl)-amino]-thiophene-2-carboxylic acid]	< 5	–
CC1CCC(C(=O)N(c2cc(C3=CCC4(CC3)OCCO4)sc2C(=O)O)C2CCC(O)CC2)CC1 (stereo not drawn) [Compound 14, 5-(1,4,Dioxa-spiro[4.5.]dec-7-en-8-yl)-3-[(trans-4-hydroxy-cyclohexyl)-(trans-4-methyl-cyclohexanecarbonyl)-amino]-thiophene-2-carboxylic acid]	< 5	–
CC(C)N(C(=O)c1ccc(Cl)cc1Cl)c1cc(C2=CCCC2)sc1C(=O)O [Compound 15, 5-Cyclopent-1-enyl-3-[(2,4-dichloro-benzoyl)-isopropyl-amino]-thiophene-2-carboxylic acid]	> 25	–
C[C@H]1CC[C@H](C(=O)N(c2cc(C3=CCCC3)sc2C(=O)O)[C@H]2CC[C@H](O)CC2)CC1 [Compound 16, 5-Cyclopent-1-enyl-3-[(trans-4-hydroxy-cyclohexyl)-(trans-4-methyl-cyclohexanecarbonyl)-amino]-thiophene-2-carboxylic acid]	< 5	–
